Measurements published in US5869448A, “Cyclic CS-1 peptidomimetics, compositions and methods of using same” (Cytel Corporation, priority 1995, dated 1999).
Positions of bridges follow the written chain, without caps; N, C: chain ends. Non-standard residues stand in square brackets, D forms with d. Residues, ends and D or L forms follow the SMILES beside them. No end group written: not given here. *: point of attachment. Pen = CC(C)(S)[C@H](N)C(=O)O; PhAc = O=C(Cc1ccccc1)*

target: T1, VLA-4/CS-1 (Homo sapiens, UniProt P05556+P13612); assay: In vitro inhibition of binding of 51Cr-labeled Jurkat cells to solid phase-bound CS-1 peptide; assay type: cell-based; details: Table 1; normalized IC50, standard peptide of SEQ ID NO:6 = 1
T1 construct: inflammatory cells that contain the VLA-4 receptor [Jurkat cells; host or cells: Jurkat (human T lymphoblastic line)
Procedure: Binding inhibition is measured here as a concentration of peptide that inhibits one-half the binding between a standard number of Jurkat cells and a standard amount of CS-1 peptide bound to the surface of a microtiter plate well. Those concentrations are conveniently expressed as IC50 values, smaller numbers indicating a lower concentration required to inhibit 50 percent binding and therefore greater potency. Further specifics of this assay are provided hereinafter.
Jurkat cells (ATCC TIB 152), a human T lymphoblastic line, labeled with ^51 chromium were used to assay in vitro binding inhibition provided by various peptides discussed herein.
The plates were prepared as follows: The 25-mer CS-1 peptide (SEQ ID NO:5) dissolved at 0.5-1 μg/ml in a buffer of 0.1M NaHCO3 at pH 9.5 that also contained 10 μg/ml of bovine serum albumin (BSA) or a conjugate of the CS-1 peptide linked to ovalbumin (CS-1-OVA) dissolved at 1-2.5 μg/ml in the same buffer was used as the substrate. Each well of the microtiter plates was coated with 50 μl of substrate or buffer alone for controls. The wells were permitted to dry out completely and were then rinsed twice with PBS at pH 7.4. Non-specific binding sites of each well were then blocked using 200 μl per well of RPMI/1 percent BSA for two hours at room temperature. Both solid phase-affixed substrates provided similar results.
Jurkat cells (3-5×10^6 cells) were placed into a 15 ml FALCON™ round-bottom tube with a cap. The tube was centrifuged, and the extra medium was then removed.
Two hundred microliters of a ^51 Cr labeling solution were added to the centrifuged cells and maintained in contact with the cells for 90-120 minutes in a warm room. This procedure typically provides about 50,000-100,000 cpm/well with about 80-100 percent cell viability. Longer contact times provide a greater amount of labeling but lower cell viability.
The labeled cells were washed with (i) complete medium, (ii) 1 mM EDTA/PBS and then (iii) RPM1/1 percent BSA free of serum components. The cells were centrifuged after each washing. The cells were finally resuspended in serum-free RPMI/1 percent BSA at a concentration of 1×10^6 viable cells/ml, which provides a concentration that is diluted by one-half in the assay.
Cyclic inhibitor peptides were prepared as stock solutions at 20 mg/ml in DMSO in 1.5 ml cryogenic screwcap vials, and were stored at -70° C. Using FLOW™ round-bottom or V-bottom microtiter plates, the inhibitor peptides were prepared at twice the assay concentration in RPMI/1 percent BSA at 60 μl/well.
Four initial dilutions were typically used.
The ^51 Cr-labeled cells (1×10^6 cells at 60 μl/well) were then admixed with the diluted cyclic peptide solutions. The admixtures were maintained at room temperature (about 22° C.) for 30 minutes.
One hundred microliters of each inhibitor peptide/cell admixture were transferred to the substrate-coated wells. This was done in triplicate for each dilution. The resulting plates were incubated for 30 minutes at 37° C. and then washed gently three times with RPMI/1 percent BSA at 200 μl/well. Binding was observed microscopically, particularly after the second wash.
The bound cells were then lysed by the addition of a 0.5 percent solution of sodium dodecylsulfate in water at 100 μl/well. The resulting solutions were then processed for counting and calculation of IC50 values following usual procedures. Appropriate positive and negative controls were used with each plate so that the results of separate assays could be normalized and compared.
The potency data of Table 1 and Table 2 are so normalized. The absolute IC50 value for the peptide of SEQ ID NO:7 is 0.3 μM.

T1 sequence (P13612 34-1032): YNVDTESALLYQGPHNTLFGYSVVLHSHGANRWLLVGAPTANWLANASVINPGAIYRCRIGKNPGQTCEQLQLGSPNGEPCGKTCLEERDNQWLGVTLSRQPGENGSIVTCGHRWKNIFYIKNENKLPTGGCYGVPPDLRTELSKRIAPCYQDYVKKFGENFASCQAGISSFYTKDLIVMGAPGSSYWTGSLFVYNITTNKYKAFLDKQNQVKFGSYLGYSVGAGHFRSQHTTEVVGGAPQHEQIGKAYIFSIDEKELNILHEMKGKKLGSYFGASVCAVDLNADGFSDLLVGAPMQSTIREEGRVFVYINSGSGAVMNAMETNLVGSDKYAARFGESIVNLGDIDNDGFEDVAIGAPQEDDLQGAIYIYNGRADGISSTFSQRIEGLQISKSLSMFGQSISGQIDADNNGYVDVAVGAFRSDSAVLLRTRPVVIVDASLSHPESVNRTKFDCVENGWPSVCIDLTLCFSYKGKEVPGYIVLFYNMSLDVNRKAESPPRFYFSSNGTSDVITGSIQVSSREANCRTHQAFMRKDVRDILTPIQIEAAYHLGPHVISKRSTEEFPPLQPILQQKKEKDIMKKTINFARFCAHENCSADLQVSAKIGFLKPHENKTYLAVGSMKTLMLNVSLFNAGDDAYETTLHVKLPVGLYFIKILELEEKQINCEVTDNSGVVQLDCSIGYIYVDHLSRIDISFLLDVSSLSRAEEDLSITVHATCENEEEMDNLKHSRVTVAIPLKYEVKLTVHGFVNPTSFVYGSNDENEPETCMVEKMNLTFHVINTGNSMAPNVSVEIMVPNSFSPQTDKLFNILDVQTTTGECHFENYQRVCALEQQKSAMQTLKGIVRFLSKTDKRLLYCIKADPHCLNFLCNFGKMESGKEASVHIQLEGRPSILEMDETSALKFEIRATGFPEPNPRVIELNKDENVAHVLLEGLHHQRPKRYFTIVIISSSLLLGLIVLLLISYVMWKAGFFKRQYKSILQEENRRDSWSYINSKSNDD
T1 sequence (P05556 21-798): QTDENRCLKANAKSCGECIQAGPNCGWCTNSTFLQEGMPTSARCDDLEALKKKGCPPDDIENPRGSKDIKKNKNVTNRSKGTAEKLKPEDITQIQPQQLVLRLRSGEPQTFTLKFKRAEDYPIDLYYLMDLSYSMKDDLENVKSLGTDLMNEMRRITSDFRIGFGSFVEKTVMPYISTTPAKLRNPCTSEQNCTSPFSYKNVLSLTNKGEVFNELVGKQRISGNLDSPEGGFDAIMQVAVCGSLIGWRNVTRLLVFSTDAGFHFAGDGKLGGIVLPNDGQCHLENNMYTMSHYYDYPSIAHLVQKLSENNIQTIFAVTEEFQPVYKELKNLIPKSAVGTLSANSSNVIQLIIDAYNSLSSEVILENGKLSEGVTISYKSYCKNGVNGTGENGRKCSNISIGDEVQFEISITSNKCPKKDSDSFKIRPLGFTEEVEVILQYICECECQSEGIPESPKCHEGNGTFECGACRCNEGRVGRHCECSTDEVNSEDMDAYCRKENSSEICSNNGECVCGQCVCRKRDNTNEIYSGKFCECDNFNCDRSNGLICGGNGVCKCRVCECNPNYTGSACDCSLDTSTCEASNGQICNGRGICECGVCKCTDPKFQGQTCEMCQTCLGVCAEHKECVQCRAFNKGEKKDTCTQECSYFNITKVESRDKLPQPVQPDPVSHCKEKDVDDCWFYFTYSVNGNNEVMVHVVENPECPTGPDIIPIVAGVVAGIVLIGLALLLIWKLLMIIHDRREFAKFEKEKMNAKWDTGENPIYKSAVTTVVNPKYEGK

Row | Relative Potency | Compound
1 | 3 | NC(=O)[C@@H]1CSSC[C@H](NC(=O)[C@@H](N)Cc2ccccc2)C(=O)N[C@@H](CC(=O)O)C(=O)N[C@@H](Cc2ccccc2)C(=O)N1 [compound 25] (H-FCDFC-NH2; disulfide 2-5)
2 | 6 | CC(C)C[C@@H]1NC(=O)[C@H](Cc2ccccc2)NC(=O)[C@H](CCC(=O)O)NC(=O)[C@@H]2CCCN2C(=O)[C@@H](N)CSSC[C@@H](C(N)=O)NC(=O)[C@H](CO)NC(=O)[C@@H]2CCCN2C(=O)[C@H](Cc2ccccc2)NC(=O)[C@H](CC(=O)O)NC1=O [compound 19] (H-CPEFLDFPSC-NH2; disulfide 1-10)
3 | 2 | ILDFP-NH2 [compound 27]
4 | < 1 | NC(=O)[C@@H]1CCCN1C(=O)[C@@H]1CSSC[C@H](NC(=O)[C@@H](N)Cc2ccccc2)C(=O)N[C@@H](CC(=O)O)C(=O)N1 [compound 30] (H-FCDCP-NH2; disulfide 2-4)
5 | 19 | CC(C)C[C@@H]1NC(=O)[C@H](Cc2ccccc2)NC(=O)[C@H](CCC(=O)O)NC(=O)[C@@H](N)CSSC[C@@H](C(N)=O)NC(=O)[C@@H]2CCCN2C(=O)[C@H](Cc2ccccc2)NC(=O)[C@H](CC(=O)O)NC1=O [compound 20] (H-CEFLDFPC-NH2; disulfide 1-8)
6 | 53 | CC(=O)N[C@@H](Cc1ccccc1)C(=O)N[C@H]1CSSC[C@@H](C(N)=O)NC(=O)[C@H](Cc2ccccc2)NC(=O)[C@H](CC(=O)O)NC1=O [compound 17] (Ac-FCDFC-NH2; disulfide 2-5)
7 | 19 | CC(C)C[C@@H]1NC(=O)[C@H](Cc2ccccc2)NC(=O)[C@@H](N)CSSC[C@@H](C(N)=O)NC(=O)[C@H](C(C)C)NC(=O)[C@H]([C@@H](C)O)NC(=O)[C@H](CO)NC(=O)[C@@H]2CCCN2C(=O)[C@H](Cc2ccccc2)NC(=O)[C@H](CC(=O)O)NC1=O [compound 21] (H-CFLDFPSTVC-NH2; disulfide 1-10)
8 | 2 | ILDVPILDVP-NH2 [compound 26]
9 | 1 | CC(=O)N[C@@H](Cc1ccccc1)C(=O)N[C@H]1CSSC[C@@H](C(=O)N2CCC[C@H]2C(N)=O)NC(=O)[C@H](CC(=O)O)NC1=O [compound 29] (Ac-FCDCP-NH2; disulfide 2-4)
10 | 9 | CC(C)C[C@@H]1NC(=O)[C@H](Cc2ccccc2)NC(=O)[C@H](CCC(=O)O)NC(=O)[C@@H](N)CSSC[C@@H](C(N)=O)NC(=O)[C@H]([C@@H](C)O)NC(=O)[C@H](CO)NC(=O)[C@@H]2CCCN2C(=O)[C@H](Cc2ccccc2)NC(=O)[C@H](CC(=O)O)NC1=O [compound 22] (H-CEFLDFPSTC-NH2; disulfide 1-10)
11 | 9 | CC(C)C[C@@H]1NC(=O)[C@H](Cc2ccccc2)NC(=O)[C@H](CCC(=O)O)NC(=O)[C@@H]2CCCN2C(=O)CNC(=O)[C@@H](N)CSSC[C@@H](C(N)=O)NC(=O)[C@H](Cc2ccccc2)NC(=O)[C@H](CC(=O)O)NC1=O [compound 23] (H-CGPEFLDFC-NH2; disulfide 1-9)
12 | 1 | CC(C)C[C@@H]1NC(=O)[C@@H](N)CSSC[C@@H](C(N)=O)NC(=O)[C@H](Cc2ccccc2)NC(=O)[C@H](CC(=O)O)NC1=O [compound 28] (H-CLDFC-NH2; disulfide 1-5)
13 | 31 | CC(C)C[C@@H]1NC(=O)[C@H](CCC(=O)O)NC(=O)[C@@H]2CCCN2C(=O)[C@@H](N)CSSC[C@@H](C(N)=O)NC(=O)[C@H](CO)NC(=O)[C@@H]2CCCN2C(=O)[C@H](Cc2ccccc2)NC(=O)[C@H](CC(=O)O)NC1=O [compound 33] (H-CPELDFPSC-NH2; disulfide 1-9)

Further lines, the compound ahead of its results:

Row | Compound | Relative Potency
14 | CC(=O)N[C@@H](CC(C)C)C(=O)N[C@@H](CC(=O)O)C(=O)N[C@H](C(N)=O)C(C)C [AcLDV--NH2, reference compound] (Ac-Leu-Asp-Val-NH2) | < 1
15 | .phi.AcJDFc-NH2 (PhAc-[Pen]DF[dC]-NH2; disulfide 1-4) | 4
16 | O=C(O)C[C@@H]1NC(=O)[C@@H](NC(=O)Cc2ccccc2)CSCCNC(=O)[C@H](Cc2ccccc2)NC1=O [.phi.AcCDF--NHCH2 CH2 --] | 16
17 | CC(=O)N[C@@H](CC(C)C)C(=O)N[C@@H](CC(=O)O)C(=O)N[C@@H](Cc1ccccc1)C(N)=O [AcLDF--NH2] (Ac-Leu-Asp-Phe-NH2) | < 1
18 | CC(C)C[C@@H]1NC(=O)[C@H](Cc2ccccc2)NC(=O)[C@@H](N)CSSC[C@@H](C(N)=O)NC(=O)[C@H]([C@@H](C)O)NC(=O)[C@H](CO)NC(=O)[C@@H]2CCCN2C(=O)[C@H](Cc2ccccc2)NC(=O)[C@H](CC(=O)O)NC1=O [compound 15] (H-CFLDFPSTC-NH2; disulfide 1-9) | 81
19 | CC(C)C[C@@H]1NC(=O)[C@H](Cc2ccccc2)NC(=O)[C@H](CCC(=O)O)NC(=O)[C@@H]2CCCN2C(=O)[C@@H](N)CSSC[C@@H](C(N)=O)NC(=O)[C@@H]2CCCN2C(=O)[C@H](Cc2ccccc2)NC(=O)[C@H](CC(=O)O)NC1=O [compound 16] (H-CPEFLDFPC-NH2; disulfide 1-9) | 31
20 | NC(=O)[C@@H]1CSSC[C@H](NC(=O)Cc2ccccc2)C(=O)N[C@@H](CC(=O)O)C(=O)N[C@@H](Cc2ccccc2)C(=O)N1 [compound 7] (PhAc-CDFC-NH2; disulfide 1-4) | 954
21 | CC(C)C[C@H](N)C(=O)N[C@@H](CC(=O)O)C(=O)N[C@@H](Cc1ccccc1)C(N)=O [LDF--NH2] (H-Leu-Asp-Phe-NH2) | 0
22 | CC1(C)SSC[C@@H](C(N)=O)NC(=O)[C@H](Cc2ccccc2)NC(=O)[C@H](CC(=O)O)NC(=O)[C@H]1NC(=O)Cc1ccccc1 [compound 14] (PhAc-[Pen]DFC-NH2; disulfide 1-4) | 94

same assay, conditions: Table 2; normalized, relative to standard peptide of SEQ ID NO:6

Row | Relative Potency | Compound
23 | .91 | CC(=O)N[C@H]1CSSC[C@@H](C(N)=O)NC(=O)[C@H](Cc2ccccc2)NC(=O)[C@H](CC(=O)O)NC(=O)[C@H](CC(C)C)NC1=O (Ac-CLDFC-NH2; disulfide 1-5)
24 | 4.07 | .phi.AcJDFc-NH2 (PhAc-[Pen]DF[dC]-NH2; disulfide 1-4)
25 | 0 | CC(C)C[C@@H]1NC(=O)[C@H](Cc2ccccc2)NC(=O)[C@@H](N)CSSC[C@@H](C(=O)N2CCC[C@H]2C(N)=O)NC(=O)[C@H](CC(=O)O)NC1=O (H-CFLDCP-NH2; disulfide 1-5)
26 | 16.1 | O=C(O)C[C@@H]1NC(=O)[C@@H](NC(=O)Cc2ccccc2)CSCCNC(=O)[C@H](Cc2ccccc2)NC1=O [.phi.AcCDF--NHCH2 CH2 --]
27 | 56.3 | CC(C)C[C@@H]1NC(=O)[C@H](Cc2ccccc2)NC(=O)[C@H](CCC(=O)O)NC(=O)[C@@H]2CCCN2C(=O)[C@@H](N)CSSC[C@@H](C(N)=O)NC(=O)[C@H](Cc2ccccc2)NC(=O)[C@H](CC(=O)O)NC1=O (H-CPEFLDFC-NH2; disulfide 1-8)
28 | 0 | CC(=O)N[C@H]1CSSC[C@@H](C(=O)N2CCC[C@@H]2C(N)=O)NC(=O)[C@H](CC(=O)O)NC(=O)[C@H](CC(C)C)NC1=O (Ac-CLDC[dP]-NH2; disulfide 1-4)

same assay, conditions: XLDFp = 1

Row | CS-1 binding inhibition potencies relative to each other | Compound
29 | ~1 | CC(C)C[C@H](NC(=O)Cc1ccccc1)C(=O)N[C@@H](CC(=O)O)C(=O)N[C@@H](Cc1ccccc1)C(=O)N1CCC[C@@H]1C(N)=O [XLDFp, .phi.Ac-LeuAspPhe-D-Pro-NH2, reference compound] (PhAc-LDF[dP]-NH2)

same assay, conditions: times more potent than standard 10-mer

Row | inhibition potency relative to the Standard 10-mer of SEQ ID NO:6 | Compound
30 | about 1 | CC(=O)N[C@@H](CC(C)C)C(=O)N[C@@H](CC(=O)O)C(=O)N[C@H](C(N)=O)C(C)C [AcLDV--NH2, reference compound] (Ac-Leu-Asp-Val-NH2)
31 | about 253 | CC(C)C[C@@H]1NC(=O)[C@H](Cc2ccccc2)NC(=O)[C@@H](N)CSSC[C@@H](C(N)=O)NC(=O)[C@@H]2CCCN2C(=O)[C@H](Cc2ccccc2)NC(=O)[C@H](CC(=O)O)NC1=O [SEQ ID NO:10, CFLDFPC--NH2] (H-CFLDFPC-NH2; disulfide 1-7)
32 | ~313 | CC(C)C[C@H](NC(=O)Cc1ccccc1)C(=O)N[C@@H](CC(=O)O)C(=O)N[C@@H](Cc1ccccc1)C(=O)N1CCC[C@@H]1C(N)=O [XLDFp, .phi.Ac-LeuAspPhe-D-Pro-NH2, reference compound] (PhAc-LDF[dP]-NH2)
